Test results published in the kinase profiling compilation of Christmann-Franck et al. (2016).

Columns and labels:
Test in all cases: radiometric filter-binding kinase assay
MAP3K11 (human) = MAP3K11 (human) (UniProt Q16584)
MAP3K7 TAB1 (human) = MAP3K7 TAB1 (human) (UniProt Q15750+O43318)
MELK (human) = MELK (human) (UniProt Q14680)
FLT1 (human) = FLT1 (human) (UniProt P17948)
SYK (human) = SYK (human) (UniProt P43405)
RPS6KA3 KD1 KD2 (human) = RPS6KA3 KD1 KD2 (human) (UniProt P51812)
AURKA (human) = AURKA (human) (UniProt O14965); conditions: compound 10.0 µM
PIM1 (human) = PIM1 (human) (UniProt P11309)
INSRR (human) = INSRR (human) (UniProt P14616)
EPHB2 (human) = EPHB2 (human) (UniProt P29323)
MAPK8 (human) = MAPK8 (human) (UniProt P45983)
PIM3 (human) = PIM3 (human) (UniProt Q86V86)
[1] = system: PAK2 (human), Q13177 [T402E]
JAK2 JH1 JH2 (human) = JAK2 JH1 JH2 (human) (UniProt O60674); conditions: compound 10.0 µM
CSNK1D (human) = CSNK1D (human) (UniProt P48730)
TTK (human) = TTK (human) (UniProt P33981)
[2] = system: SGK1 (human), O00141 [S422D]
BRSK2 (human) = BRSK2 (human) (UniProt Q8IWQ3)
MYLK (human) = MYLK (human) (UniProt Q15746)
RIPK2 (human) = RIPK2 (human) (UniProt O43353)
[3] = system: RPS6KB1 (human), P23443 [T412E]
CLK2 (human) = CLK2 (human) (UniProt P49760)
MAP2K2 (human) = MAP2K2 (human) (UniProt P36507)
PLK1 (human) = PLK1 (human) (UniProt P53350)
INSR (human) = INSR (human) (UniProt P06213)
EPHA4 (human) = EPHA4 (human) (UniProt P54764); conditions: compound 10.0 µM
IRAK4 (human) = IRAK4 (human) (UniProt Q9NWZ3)
FGFR1 (human) = FGFR1 (human) (UniProt P11362); conditions: compound 10.0 µM
CSK (human) = CSK (human) (UniProt P41240)
BRSK1 (human) = BRSK1 (human) (UniProt Q8TDC3)
MAPK12 (human) = MAPK12 (human) (UniProt P53778)
CDK2 CCNA2 (human) = CDK2 CCNA2 (human) (UniProt P20248+P24941)
MAPKAPK3 (human) = MAPKAPK3 (human) (UniProt Q16644)
MARK4 (human) = MARK4 (human) (UniProt Q96L34)
TBK1 (human) = TBK1 (human) (UniProt Q9UHD2); conditions: compound 1.0 µM

Sequence of BRSK2 (human) (Q8IWQ3 whole entry, looked up): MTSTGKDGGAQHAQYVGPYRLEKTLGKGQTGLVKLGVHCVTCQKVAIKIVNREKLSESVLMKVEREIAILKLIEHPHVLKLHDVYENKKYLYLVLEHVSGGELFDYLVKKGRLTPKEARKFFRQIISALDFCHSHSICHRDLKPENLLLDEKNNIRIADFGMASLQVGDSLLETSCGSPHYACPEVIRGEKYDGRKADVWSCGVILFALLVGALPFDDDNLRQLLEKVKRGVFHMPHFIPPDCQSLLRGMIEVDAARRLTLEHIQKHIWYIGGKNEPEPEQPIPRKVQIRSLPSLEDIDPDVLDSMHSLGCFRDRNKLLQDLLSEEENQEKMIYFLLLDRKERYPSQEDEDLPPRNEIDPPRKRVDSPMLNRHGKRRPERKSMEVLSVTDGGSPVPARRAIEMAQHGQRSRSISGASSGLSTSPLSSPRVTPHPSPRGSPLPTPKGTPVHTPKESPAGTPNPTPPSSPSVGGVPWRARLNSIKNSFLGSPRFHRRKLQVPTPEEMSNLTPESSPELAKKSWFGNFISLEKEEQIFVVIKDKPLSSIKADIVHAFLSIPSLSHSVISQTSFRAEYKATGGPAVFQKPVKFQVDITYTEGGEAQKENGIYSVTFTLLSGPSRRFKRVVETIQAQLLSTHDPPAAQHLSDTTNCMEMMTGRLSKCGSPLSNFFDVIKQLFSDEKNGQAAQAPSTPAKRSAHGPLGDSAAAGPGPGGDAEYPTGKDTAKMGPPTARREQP
Sequence of MYLK (human) (Q15746 whole entry, looked up): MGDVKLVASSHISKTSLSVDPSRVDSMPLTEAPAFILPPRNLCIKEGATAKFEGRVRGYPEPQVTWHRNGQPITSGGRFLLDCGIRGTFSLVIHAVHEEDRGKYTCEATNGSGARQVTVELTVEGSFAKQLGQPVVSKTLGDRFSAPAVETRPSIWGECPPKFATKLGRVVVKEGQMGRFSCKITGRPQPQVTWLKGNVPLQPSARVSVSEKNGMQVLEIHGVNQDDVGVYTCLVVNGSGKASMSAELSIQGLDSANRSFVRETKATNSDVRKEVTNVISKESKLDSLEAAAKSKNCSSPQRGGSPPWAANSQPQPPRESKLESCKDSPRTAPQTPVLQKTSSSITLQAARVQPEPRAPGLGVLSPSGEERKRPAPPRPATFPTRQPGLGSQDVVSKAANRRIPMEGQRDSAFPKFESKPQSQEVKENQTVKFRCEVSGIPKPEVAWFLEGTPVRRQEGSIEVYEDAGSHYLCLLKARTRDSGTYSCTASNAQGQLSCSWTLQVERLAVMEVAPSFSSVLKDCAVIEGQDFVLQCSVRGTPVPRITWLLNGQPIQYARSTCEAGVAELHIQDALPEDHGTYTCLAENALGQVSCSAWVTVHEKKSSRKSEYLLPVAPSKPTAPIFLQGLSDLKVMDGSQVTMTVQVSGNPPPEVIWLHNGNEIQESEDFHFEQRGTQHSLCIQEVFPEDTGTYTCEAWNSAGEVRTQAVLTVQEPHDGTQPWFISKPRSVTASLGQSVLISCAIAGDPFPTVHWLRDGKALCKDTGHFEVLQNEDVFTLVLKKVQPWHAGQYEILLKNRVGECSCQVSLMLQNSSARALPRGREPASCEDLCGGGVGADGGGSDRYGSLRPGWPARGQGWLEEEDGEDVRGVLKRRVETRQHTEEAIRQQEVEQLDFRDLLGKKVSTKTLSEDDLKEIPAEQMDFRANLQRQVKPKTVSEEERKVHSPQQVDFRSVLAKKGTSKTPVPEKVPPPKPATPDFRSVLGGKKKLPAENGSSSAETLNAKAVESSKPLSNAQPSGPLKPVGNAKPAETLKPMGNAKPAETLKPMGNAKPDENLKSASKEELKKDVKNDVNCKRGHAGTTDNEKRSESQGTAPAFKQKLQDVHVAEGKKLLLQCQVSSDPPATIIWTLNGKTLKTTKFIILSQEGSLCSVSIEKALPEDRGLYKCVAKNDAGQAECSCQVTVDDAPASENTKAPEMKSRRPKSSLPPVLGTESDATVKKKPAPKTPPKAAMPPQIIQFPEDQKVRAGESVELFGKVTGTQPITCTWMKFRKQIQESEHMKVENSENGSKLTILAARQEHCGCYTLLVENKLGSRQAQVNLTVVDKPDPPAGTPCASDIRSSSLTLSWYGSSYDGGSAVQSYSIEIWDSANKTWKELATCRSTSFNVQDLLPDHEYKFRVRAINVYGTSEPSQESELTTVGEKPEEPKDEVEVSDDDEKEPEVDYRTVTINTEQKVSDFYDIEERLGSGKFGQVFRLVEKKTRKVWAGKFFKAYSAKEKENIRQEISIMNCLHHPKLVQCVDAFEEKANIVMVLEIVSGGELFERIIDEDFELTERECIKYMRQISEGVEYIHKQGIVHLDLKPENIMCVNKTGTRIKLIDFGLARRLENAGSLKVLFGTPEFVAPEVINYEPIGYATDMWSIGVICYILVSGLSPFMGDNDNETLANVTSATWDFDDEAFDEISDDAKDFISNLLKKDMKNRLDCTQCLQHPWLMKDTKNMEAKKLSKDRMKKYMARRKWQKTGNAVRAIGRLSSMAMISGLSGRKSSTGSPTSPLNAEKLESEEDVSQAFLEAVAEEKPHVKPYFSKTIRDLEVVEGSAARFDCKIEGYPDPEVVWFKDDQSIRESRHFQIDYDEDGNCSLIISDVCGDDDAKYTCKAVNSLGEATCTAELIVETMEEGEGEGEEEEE
Sequence of INSR (human) (P06213 whole entry, looked up): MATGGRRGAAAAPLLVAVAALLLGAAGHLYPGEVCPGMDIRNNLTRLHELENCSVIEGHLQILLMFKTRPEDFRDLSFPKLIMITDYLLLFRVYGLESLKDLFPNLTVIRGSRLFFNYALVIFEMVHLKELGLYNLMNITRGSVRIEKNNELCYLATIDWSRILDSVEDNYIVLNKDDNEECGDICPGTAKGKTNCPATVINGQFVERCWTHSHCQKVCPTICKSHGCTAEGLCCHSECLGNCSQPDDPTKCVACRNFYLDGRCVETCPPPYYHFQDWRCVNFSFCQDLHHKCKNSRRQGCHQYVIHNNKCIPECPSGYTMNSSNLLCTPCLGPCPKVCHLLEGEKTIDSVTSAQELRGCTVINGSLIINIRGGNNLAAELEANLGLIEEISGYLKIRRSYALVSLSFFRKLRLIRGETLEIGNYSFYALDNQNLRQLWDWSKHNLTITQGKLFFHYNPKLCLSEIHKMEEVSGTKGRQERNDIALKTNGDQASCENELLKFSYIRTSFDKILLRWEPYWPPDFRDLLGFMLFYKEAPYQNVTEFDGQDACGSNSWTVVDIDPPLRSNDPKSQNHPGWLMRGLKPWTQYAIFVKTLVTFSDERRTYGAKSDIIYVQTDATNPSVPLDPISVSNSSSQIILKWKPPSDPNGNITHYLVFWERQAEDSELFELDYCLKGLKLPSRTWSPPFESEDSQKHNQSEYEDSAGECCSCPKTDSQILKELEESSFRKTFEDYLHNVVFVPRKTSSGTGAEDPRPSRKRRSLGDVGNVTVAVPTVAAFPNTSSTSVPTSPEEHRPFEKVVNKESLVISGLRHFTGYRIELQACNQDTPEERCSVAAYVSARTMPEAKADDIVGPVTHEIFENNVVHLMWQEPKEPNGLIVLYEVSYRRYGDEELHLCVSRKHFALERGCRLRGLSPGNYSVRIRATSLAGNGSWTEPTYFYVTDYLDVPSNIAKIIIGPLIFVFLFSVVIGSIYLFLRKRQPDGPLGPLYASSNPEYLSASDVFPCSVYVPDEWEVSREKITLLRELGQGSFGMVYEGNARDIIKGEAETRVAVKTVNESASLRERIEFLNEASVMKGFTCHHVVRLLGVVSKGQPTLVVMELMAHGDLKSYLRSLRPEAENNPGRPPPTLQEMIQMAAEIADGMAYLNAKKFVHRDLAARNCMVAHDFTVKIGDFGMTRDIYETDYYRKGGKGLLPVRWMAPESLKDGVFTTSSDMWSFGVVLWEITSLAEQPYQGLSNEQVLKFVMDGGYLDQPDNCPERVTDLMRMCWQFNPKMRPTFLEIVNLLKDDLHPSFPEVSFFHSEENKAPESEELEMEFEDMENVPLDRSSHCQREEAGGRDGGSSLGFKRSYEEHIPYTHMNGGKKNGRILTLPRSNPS
Sequence of RIPK2 (human) (O43353 whole entry, looked up): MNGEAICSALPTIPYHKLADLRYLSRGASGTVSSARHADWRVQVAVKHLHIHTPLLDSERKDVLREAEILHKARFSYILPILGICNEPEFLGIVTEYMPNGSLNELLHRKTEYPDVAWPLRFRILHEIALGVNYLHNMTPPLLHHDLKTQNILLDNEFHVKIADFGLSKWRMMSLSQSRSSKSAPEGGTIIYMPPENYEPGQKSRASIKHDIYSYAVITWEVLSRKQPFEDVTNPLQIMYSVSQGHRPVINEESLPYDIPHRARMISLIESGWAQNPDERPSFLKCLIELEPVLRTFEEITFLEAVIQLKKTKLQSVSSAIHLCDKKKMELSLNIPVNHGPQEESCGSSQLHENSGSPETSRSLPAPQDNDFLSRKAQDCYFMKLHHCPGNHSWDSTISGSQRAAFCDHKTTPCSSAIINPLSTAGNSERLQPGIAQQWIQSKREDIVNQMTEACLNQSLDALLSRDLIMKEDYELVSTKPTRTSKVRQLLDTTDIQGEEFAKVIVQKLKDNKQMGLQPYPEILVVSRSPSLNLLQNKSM
Sequence of MAP2K2 (human) (P36507 whole entry, looked up): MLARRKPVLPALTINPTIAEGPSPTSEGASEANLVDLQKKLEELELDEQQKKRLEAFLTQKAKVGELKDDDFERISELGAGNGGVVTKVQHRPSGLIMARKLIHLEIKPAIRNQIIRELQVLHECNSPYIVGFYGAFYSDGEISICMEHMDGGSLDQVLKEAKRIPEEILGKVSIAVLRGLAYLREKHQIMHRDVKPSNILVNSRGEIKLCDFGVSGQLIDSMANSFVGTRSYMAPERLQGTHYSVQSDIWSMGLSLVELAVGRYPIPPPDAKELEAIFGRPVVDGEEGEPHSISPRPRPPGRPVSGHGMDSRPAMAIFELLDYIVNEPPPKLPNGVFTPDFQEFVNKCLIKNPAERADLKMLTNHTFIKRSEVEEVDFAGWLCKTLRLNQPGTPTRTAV

Work on Cc1nc(-c2ccc(OCC(C)C)c(C#N)c2)sc1C(=O)O yielded a residual activity (MAP3K11 (human); compound 1.0 µM) of 80%, a residual activity (MAP3K11 (human); compound 10.0 µM) of 47% and a residual activity (MAP3K7 TAB1 (human); compound 1.0 µM) of 88%. For the same compound, the residual activity (MAP3K7 TAB1 (human); compound 10.0 µM) was 81%, the residual activity (MELK (human); compound 1.0 µM) was 84% and the residual activity (MELK (human); compound 10.0 µM) was 87%. For the same compound, the residual activity (FLT1 (human); compound 1.0 µM) was 83%, the residual activity (FLT1 (human); compound 10.0 µM) was 71% and the residual activity (SYK (human); compound 1.0 µM) was 158%. The residual activity (SYK (human); compound 10.0 µM) was 117%, the residual activity (RPS6KA3 KD1 KD2 (human); compound 1.0 µM) was 99% and the residual activity (RPS6KA3 KD1 KD2 (human); compound 10.0 µM) was 92%. It also gave a residual activity (AURKA (human)) of 94%, a residual activity (PIM1 (human); compound 1.0 µM) of 83% and a residual activity (PIM1 (human); compound 10.0 µM) of 66%. The residual activity (INSRR (human); compound 1.0 µM) was 66%, the residual activity (INSRR (human); compound 10.0 µM) was 68% and the residual activity (EPHB2 (human); compound 1.0 µM) was 122%. It also gave a residual activity (EPHB2 (human); compound 10.0 µM) of 102%, a residual activity (MAPK8 (human); compound 1.0 µM) of 95% and a residual activity (MAPK8 (human); compound 10.0 µM) of 103%. The residual activity (PIM3 (human); compound 1.0 µM) was 66%, the residual activity (PIM3 (human); compound 10.0 µM) was 19% and the residual activity ([1]; compound 1.0 µM) was 95%. The residual activity ([1]; compound 10.0 µM) was 90%, the residual activity (JAK2 JH1 JH2 (human)) was 83% and the residual activity (CSNK1D (human); compound 1.0 µM) was 79%. It also gave a residual activity (CSNK1D (human); compound 10.0 µM) of 93%, a residual activity (TTK (human); compound 1.0 µM) of 89% and a residual activity (TTK (human); compound 10.0 µM) of 87%. The residual activity ([2]; compound 1.0 µM) was 99%, the residual activity ([2]; compound 10.0 µM) was 98% and the residual activity (BRSK2 (human); compound 1.0 µM) was 100%. The residual activity (BRSK2 (human); compound 10.0 µM) was 86%, the residual activity (MYLK (human); compound 1.0 µM) was 101% and the residual activity (MYLK (human); compound 10.0 µM) was 79%. It also gave a residual activity (RIPK2 (human); compound 1.0 µM) of 97%, a residual activity (RIPK2 (human); compound 10.0 µM) of 88% and a residual activity ([3]; compound 1.0 µM) of 99%. For the same compound, the residual activity ([3]; compound 10.0 µM) was 99%, the residual activity (CLK2 (human); compound 1.0 µM) was 81% and the residual activity (CLK2 (human); compound 10.0 µM) was 77%. The residual activity (MAP2K2 (human); compound 1.0 µM) was 77%, the residual activity (MAP2K2 (human); compound 10.0 µM) was 73% and the residual activity (PLK1 (human); compound 1.0 µM) was 94%. For the same compound, the residual activity (PLK1 (human); compound 10.0 µM) was 91%, the residual activity (INSR (human); compound 1.0 µM) was 102% and the residual activity (INSR (human); compound 10.0 µM) was 96%. The residual activity (EPHA4 (human)) was 107%, the residual activity (IRAK4 (human); compound 1.0 µM) was 90% and the residual activity (IRAK4 (human); compound 10.0 µM) was 98%. For the same compound, the residual activity (FGFR1 (human)) was 103%, the residual activity (CSK (human); compound 1.0 µM) was 148% and the residual activity (CSK (human); compound 10.0 µM) was 119%. For the same compound, the residual activity (BRSK1 (human); compound 1.0 µM) was 94%, the residual activity (BRSK1 (human); compound 10.0 µM) was 91% and the residual activity (MAPK12 (human); compound 1.0 µM) was 84%. For the same compound, the residual activity (MAPK12 (human); compound 10.0 µM) was 96%, the residual activity (CDK2 CCNA2 (human); compound 1.0 µM) was 106% and the residual activity (CDK2 CCNA2 (human); compound 10.0 µM) was 106%. The residual activity (MAPKAPK3 (human); compound 1.0 µM) was 102%, the residual activity (MAPKAPK3 (human); compound 10.0 µM) was 95% and the residual activity (MARK4 (human); compound 1.0 µM) was 96%. The residual activity (MARK4 (human); compound 10.0 µM) was 85% and the residual activity (TBK1 (human)) was 127%.
